Experimental data from patent US20260317312A1, “ISOXAZOLIDINES AS RIPK1 INHIBITORS AND USE THEREOF” (GENZYME CORPORATION, priority 2023, published 2026).

How the values were obtained:
[1] = target: T1, hRIPK1 (aa 1-375) fusion protein (Homo sapiens, UniProt Q13546); test: Receptor-Interacting Protein Kinase 1 inhibition, ADP Glo assay (conversion of ATP to ADP due to autophosphorylation); format: biochemical; settings: ATP 50 μM, 30 min preincubation, 240 min incubation, room temperature, DMSO 1%
T1 construct: hRIPK1 (aa 1-375) fusion protein
T1 sequence (Q13546 1-375): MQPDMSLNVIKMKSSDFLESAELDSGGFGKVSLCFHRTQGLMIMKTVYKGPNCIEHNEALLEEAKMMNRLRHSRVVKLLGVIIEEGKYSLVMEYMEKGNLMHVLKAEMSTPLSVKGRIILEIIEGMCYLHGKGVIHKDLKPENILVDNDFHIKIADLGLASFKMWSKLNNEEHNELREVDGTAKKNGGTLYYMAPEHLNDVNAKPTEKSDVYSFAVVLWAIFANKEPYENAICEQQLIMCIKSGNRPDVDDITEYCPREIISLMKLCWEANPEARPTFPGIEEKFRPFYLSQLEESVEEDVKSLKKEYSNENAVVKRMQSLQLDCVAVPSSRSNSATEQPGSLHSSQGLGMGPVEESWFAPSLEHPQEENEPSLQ
Summary of the method: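 The readout was ADP-Glo luminescence after a 240 min rt autophosphorylation reaction with 50 μM ATP, following 30 min preincubation of 3.6 μg/ml hRIPK1 (aa 1-375) fusion with compound at 33300-1.69 nM final in 1% DMSO. Values came from Levenberg-Marquardt nonlinear fits.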

[2] = test system: U937 cells; test: Cellular assay in U937 cells to measure activity of RIPK1-inhibitors on cell death (necroptosis); format: cell-based; settings: Homo sapiens, U-937, TNFα/zVAD.fmk induced cell death (necroptosis), overnight (18 to 24 hrs), 37° C., MTS readout

IC50 [1] [µM] | Compound | IC50 [2] [µM]
0.027 | N#Cc1cc(F)cc([C@@H]2CCON2C(=O)[C@H]2CC[C@H](COc3ccc(F)c(C#N)c3)CC2)c1 [Compound 44, trans-5-((4-((S)-3-(3-cyano-5-fluorophenyl)isoxazolidine-2-carbonyl)cyclohexyl)methoxy)-2-fluorobenzonitrile] | 0.005
0.044 | N#Cc1cc(OC[C@H]2CC[C@H](C(=O)N3OCC[C@H]3c3cc(F)cc(F)c3)CC2)ncn1 [Compound 45, trans-6-((4-((S)-3-(3,5-difluorophenyl)isoxazolidine-2-carbonyl)cyclohexyl)methoxy)pyrimidine-4-carbonitrile] | 0.038
0.041 | O=C([C@H]1CC[C@H](COc2cc(Cl)ncn2)CC1)N1OCC[C@H]1c1cc(F)cc(F)c1 [Compound 46, trans-(4-(((6-chloropyrimidin-4-yl)oxy)methyl)cyclohexyl)((S)-3-(3,5-difluorophenyl)isoxazolidin-2-yl)methanone] | 0.014
0.05 | NC(=O)c1cc(OC[C@H]2CC[C@H](C(=O)N3OCC[C@H]3c3cc(F)cc(F)c3)CC2)ncn1 [Compound 47, trans-6-((4-((S)-3-(3,5-difluorophenyl)isoxazolidine-2-carbonyl)cyclohexyl)methoxy)pyrimidine-4-carboxamide] | 0.021
0.044 | N#Cc1cc(F)cc(OC[C@H]2CC[C@H](C(=O)N3OCC[C@H]3c3cc(F)cc(F)c3)CC2)c1 [Compound 48, trans-3-((4-((S)-3-(3,5-difluorophenyl)isoxazolidine-2-carbonyl)cyclohexyl)methoxy)-5-fluorobenzonitrile] | 0.013
0.044 | N#Cc1cc(F)cc(OC[C@H]2CC[C@H](C(=O)N3OCC[C@H]3c3cc(F)cc(C#N)c3)CC2)c1 [Compound 49, trans-3-((S)-2-(4-((3-cyano-5-fluorophenoxy)methyl)cyclohexane-1-carbonyl)isoxazolidin-3-yl)-5-fluorobenzonitrile] | 0.018
0.018 | N#Cc1cc(OC[C@H]2CC[C@@H](C(=O)N3OCC[C@H]3c3cc(F)cc(F)c3)CC2)ccc1F [Compound 52, cis-5-((4-((S)-3-(3,5-difluorophenyl)isoxazolidine-2-carbonyl)cyclohexyl)methoxy)-2-fluorobenzonitrile] | 0.006
0.018 | N#Cc1cc(F)cc(OC[C@H]2CC[C@@H](C(=O)N3OCC[C@H]3c3cc(F)cc(F)c3)CC2)c1 [Compound 53, cis-3-((4-((S)-3-(3,5-difluorophenyl)isoxazolidine-2-carbonyl)cyclohexyl)methoxy)-5-fluorobenzonitrile] | 0.017
0.08 | NC(=O)c1cc(OC[C@H]2CC[C@@H](C(=O)N3OCC[C@H]3c3cc(F)cc(F)c3)CC2)ncn1 [Compound 54, cis-6-((4-((S)-3-(3,5-difluorophenyl)isoxazolidine-2-carbonyl)cyclohexyl)methoxy)pyrimidine-4-carboxamide] | 0.364
0.056 | N#Cc1cc(OC[C@H]2CC[C@@H](C(=O)N3OCC[C@H]3c3cc(F)cc(F)c3)CC2)ncn1 [Compound 55, cis-6-((4-((S)-3-(3,5-difluorophenyl)isoxazolidine-2-carbonyl)cyclohexyl)methoxy)pyrimidine-4-carbonitrile] | 1.53

Compound | IC50 [1] [µM] | IC50 [2] [µM]
N#Cc1cc(F)cc(O[C@H]2C[C@H](C(=O)N3OCC[C@H]3c3cc(F)cc(F)c3)C2)c1 [Compound 50, trans-3-(3-((S)-3-(3,5-difluorophenyl)isoxazolidine-2-carbonyl)cyclobutoxy)-5-fluorobenzonitrile] | 0.025 | 0.13
N#Cc1cc(O[C@H]2C[C@H](C(=O)N3OCC[C@H]3c3cc(F)cc(F)c3)C2)ccc1F [Compound 51, trans-5-(3-((S)-3-(3,5-difluorophenyl)isoxazolidine-2-carbonyl)cyclobutoxy)-2-fluorobenzonitrile] | 0.021 | 0.006
